Experimental data as given in patent publication US12370143B2, “Compound or salt thereof and lipid particles” (FUJIFILM Corporation, priority 2018, dated 2025).

Experiments:
[1] = Particle size of nucleic acid lipid particles (Luc2-siRNA); type: physicochemical; conditions: compound/DSPC/cholesterol/DMG-PEG2000 50/10/38.5/1.5
Description: By using the dispersion liquid of lipid particles as it was, the particle size of the lipid particles was measured using a zeta potential/particle size measurement system ELS-Z2 (Otsuka Electronics Co., Ltd.).
(§1) The compounds described in Table 2, L-α-distearoylphosphatidylcholine (trade name: COATSOME® MC-8080; NOF corporation), cholesterol (trade name: Choesterol HP; NIPPON FINE CHEMICAL CO., LTD.), and 1,2-dimyristoyl-rac-glycero-3-(methylpolyoxyethylene 2000) (hereinafter, called DMG-PEG2000) (trade name: SUNBRIGHT® GM-020; NOF corporation) were dissolved in ethanol at a molar ratio of 50/10/38.5/1.5 such that the total lipid concentration became 20 mmol/L, thereby obtaining an oil phase.
(§2) An aqueous nucleic acid solution obtained by dissolving 5 mg of Luc2-siRNA having the sequence described in Biomacromolecules (2013) 14, p. 3905 in 1 mL of sterile water was diluted with 10 mmol/L acetate buffer having a pH 4 such that the nucleic acid concentration became 19.7 μmol/L, thereby obtaining a water phase. Then, the water phase and the oil phase were mixed together by a micromixer (see JP5288254B) using a syringe pump such that the volume ratio of water phase:oil phase became 3:1 (final ratio of siRNA/lipid=339 (mol/mol)), and the mixed solution was diluted 2× with PBS, thereby obtaining a dispersion liquid of nucleic acid lipid particles. The dispersion liquid was dialyzed (Slide-A-Lyzer G2, MWCO: 10 kD, Thermo Fisher Scientific) using a phosphate buffered saline such that ethanol was removed, thereby obtaining nucleic acid lipid particles.
The particle size of the nucleic acid lipid particles was measured by the same method as that in <Preparation of lipid particles>.

[2] = Encapsulation rate of siRNA in nucleic acid lipid particles (Luc2-siRNA); type: physicochemical; conditions: compound/DSPC/cholesterol/DMG-PEG2000 50/10/38.5/1.5
Description: as §1, §2
A 3 mol/L aqueous sodium acetate solution (30 μL) and 9 μL of glycogen were added to 60 μL of the lipid particles retaining nucleic acids, and then 1.5 mL of ethanol was added thereto such that only the nucleic acids were precipitated while the lipid was dissolved. Then, the supernatant was removed by centrifugation. After the precipitates were air-dried for 15 minutes or longer, water was added thereto such that the precipitates were redissolved, and the concentration thereof was measured using Nanodrop NF1000 (Thermo Fisher Scientific), thereby quantifying the total nucleic acid concentration.
The nucleic acid concentration was quantified using a Quant-iT RiboGreen RNA Assay Kit (Thermo Fisher Scientific) according to the protocol. First, a 20×TE buffer included in the above kit was diluted with water, thereby obtaining a 1×TE buffer. TE represents Tris/EDTA (ethylenediaminetetraacetic acid). In order to quantify only the nucleic acid in the outer water phase, the dispersion liquid of lipid particles retaining nucleic acids was diluted 10,000× with the 1×TE buffer.
The 10,000× diluted dispersion liquid of lipid particles (100 μL) was put in a 96-well plate, then 100 μL of a RiboGreen reagent (reagent included in the Quanti-iT Ribogreen RNA Assay Kit described above) diluted 2000× with the 1×TE buffer was added to a sample, and fluorescence (excitation wavelength: 485 nm, fluorescence wavelength: 535 nm) was measured using a plate reader Infinit EF200 (TECAN), thereby quantifying the nucleic acid concentration in the outer water phase.
By using the total nucleic acid concentration obtained through the above steps and the quantified nucleic acid concentration in the outer water phase, the nucleic acid encapsulation rate of the nucleic acid lipid particles was calculated according to the following Equation. Nucleic acid encapsulation rate (%)=(total nucleic acid concentration−nucleic acid concentration in outer water phase)/total nucleic acid concentration×100 The results are shown in Table 2.

[3] = test system: DMS273 cells constantly expressing Luc; test: Target reporter protein (Luc) knockdown in cell, reporter protein assay; type: cell-based; conditions: Homo sapiens, DMS-273; Luc2-siRNA lipid particles using the compound; siRNA 0.1 to 100 nmol/L; concentration at which Luc expression is knocked down to 50%; read-out: IC50
Description: The nucleic acid lipid particles prepared by the same method as that in <Preparation of nucleic acid lipid particles> by using the compounds described in Table 3 were evaluated by reporter assay by the following method.
By using pGL4.50 Luc2 (E1310 Promega), DMS273 cells (human small cell lung cancer) (European Collection of Authenticated Cell Cultures) constantly expressing Luc were prepared. RPMI (Gibco) (10% FBS (Gibco), 1% Penicillin-Streptomycin (Gibco), and 200 μg/mL Hygromycin (Wako)) was used as a culture medium. DMS273 cells (2.0×10^3) constantly expressing luciferase (Luc) were seeded in a 96-well plate and cultured in a 5% CO2 incubator for 24 hours, and then the medium was replaced. Then, 10 μL of each of the dispersion liquids of lipid particles diluted with PBS (Gibco) to yield a concentration of 1 to 1,000 nmol/L was added to the 96-well plate, and the final concentration was adjusted to 0.1 to 100 nmol/L (total amount of liquid: 110 μl). Thereafter, the cells were cultured in a 5% CO2 incubator for 24 hours, the medium was then replaced, and the cells were further cultured for 24 hours.
After the viable cell count was determined, the expression amount of Luc was quantified using a Steady Glo assay kit (Promega), and the knockdown efficiency was calculated according to the following equation. Then, the IC50 concentration at which the expression amount of Luc was knocked down to 50% was calculated.

| SMILES | Particle size (nm) [1] [nm] | Nucleic acid encapsulation rate [2] [%] | IC50 [3] [µM] |
| --- | --- | --- | --- |
| CCCCC/C=C\C/C=C\CCCCCCCCN(CCCCCCCC/C=C\C/C=C\CCCCC)C(=O)CCN(C)CCN(C)C [Comparative Example 7, 3-((2-(dimethylamino)ethyl)(methyl)amino)-N,N-di((9Z,12Z)-octadeca-9,12-dien-1-yl)propanamide, reference compound] | 71.9 | 87 | > 0.1 |
| CCCCC/C=C\C/C=C\CCCCCCCCN(CCCCCCCC/C=C\C/C=C\CCCCC)C(=O)OC1CCN(CCN(C)C)CC1 [Example 3, 1-(2-(Dimethylamino)ethyl)piperidin-4-yl di((9Z,12Z)-octadeca-9,12-dien-1-yl)carbamate] | 83.6 | 100 | 0.043 |
| CCCCC/C=C\C/C=C\CCCCCCCCC(CCCCCCCC/C=C\C/C=C\CCCCC)OC(=O)OCCN(C)CCN [Example 26] | 209.8 | 97 | 0.03 |
| CCCCC/C=C\C/C=C\CCCCCCCCC(CCCCCCCC/C=C\C/C=C\CCCCC)OC(=O)OCCN(C)CCN(C)CCO [Example 27, (6Z,9Z,28Z,31Z)-heptatriaconta-6,9,28,31-tetraen-19-yl(2-((2-((2-hydroxyethyl)(methyl)amino)ethyl)(methyl)amino)ethyl)carbonate] | 75.2 | 75 | 0.031 |
| CCCCCCC(CCCC)COC(=O)CCCCCCCCC(CCCCCC)OC(=O)OCCN(CCN(CC)CC)C(C)C (stereo not drawn) [Example 84, 2-butyloctyl 3-ethyl-12-hexyl-6-isopropyl-10-oxo-9,11-dioxa-3,6-diazahenicosan-21-oate] | 81 | 79 | 0.03 |
| CCCCCCC(CCCC)COC(=O)CCCC(CCCCCC)OC(=O)OCCN(CCO)CCN(CC)CC (stereo not drawn) [Example 101, 2-Butyloctyl 3-ethyl-12-hexyl-6-(2-hydroxyethyl)-10-oxo-9,11-dioxa-3,6-diazahexadecan-16-oate] | 177.3 | 68 | 0.039 |
| CCCCCCCCC(CCCCCC)COC(=O)CCCC(CCCCCC)OC(=O)OCCN(CCO)CCN(CC)CC (stereo not drawn) [Example 102, 2-Hexyldecyl 3-ethyl-12-hexyl-6-(2-hydroxyethyl)-10-oxo-9,11-dioxa-3,6-diazahexadecan-16-oate] | 147.2 | 70 | 0.027 |
| CCCCC/C=C\C/C=C\CCCCCCCCC(CCCCCCCC/C=C\C/C=C\CCCCC)OC(=O)CCCN(C)C [Reference Example 1, (6Z,9Z,28Z,31Z)-heptatriaconta-6,9,28,31-tetraen-19-yl-4-(dimethylamino)butanoate, reference compound] | 69.6 | 81 | 0.047 |
| CCCCC/C=C\C/C=C\CCCCCCCCN(CCCCCCCC/C=C\C/C=C\CCCCC)C(=O)OCC1CCCN(C)C1 (stereo not drawn) [Reference Example 2, (1-Methylpiperidin-3-yl)methyl di((9Z,12Z)-octadeca-9,12-dien-1-yl)carbamate, reference compound] | 118.4 | 85 | 0.059 |

Now those with a lower IC50 [3], led by results:

| Particle size (nm) [1] [nm] | Nucleic acid encapsulation rate [2] [%] | IC50 [3] [µM] | SMILES |
| --- | --- | --- | --- |
| 66.1 | 81 | 0.01 | CCCCC/C=C\C/C=C\CCCCCCCCN(CCCCCCCC/C=C\C/C=C\CCCCC)C(=O)OC1CCCN(CCN(C)C)C1 (stereo not drawn) [Example 4, 1-(2-(Dimethylamino)ethyl)piperidin-3-yl di((9Z,12Z)-octadeca-9,12-dien-1-yl)carbamate] |
| 98.6 | 84 | 0.014 | CCCCC/C=C\C/C=C\CCCCCCCCN(CCCCCCCC/C=C\C/C=C\CCCCC)C(=O)OCCN(C)CCN(CC)CC [Example 7, 2-((2-(Diethylamino)ethyl)(methyl)amino)ethyl di((9Z,12Z)-octadeca-9,12-dien-1-yl)carbamate] |
| 101.6 | 84 | 0.015 | CCCCC/C=C\C/C=C\CCCCCCCCC(CCCCCCCC/C=C\C/C=C\CCCCC)OC(=O)OCCN(C)CCN(C)C [Example 20, 2-((2-(dimethylamino)ethyl)(methyl)amino)ethyl((6Z,9Z,28Z,31Z)-heptatriaconta-6,9,28,31-tetraen-19-yl)carbonate] |
| 68.5 | 76 | 0.016 | CCCCC/C=C\C/C=C\CCCCCCCCC(CCCCCCCC/C=C\C/C=C\CCCCC)OC(=O)OCCN(CCN(C)C)C(C)C [Example 25, 2-((2-(Dimethylamino)ethyl)(isopropyl)amino)ethyl((6Z,9Z,28Z,31Z)-heptatriaconta-6,9,28,31-tetraen-19-yl)carbonate] |
| 70.1 | 77 | 0.019 | CCCCC/C=C\C/C=C\CCCCCCCC(CCCCCCCCCC)OC(=O)OCCN(C)CCN(C)C (stereo not drawn) [Example 29, 2-((2-(Dimethylamino)ethyl)(methyl)amino)ethyl((19Z,22Z)-octacosa-19,22-dien-11-yl)carbonate] |
| 67.9 | 87 | 0.012 | CCCCC/C=C\C/C=C\CCCCCCCC(CCCCCCCCCC)OC(=O)OCCN(CC)CCN(C)C (stereo not drawn) [Example 33, 2-((2-(Dimethylamino)ethyl)(ethyl)amino)ethyl((19Z,22Z)-octacosa-19,22-dien-11-yl)carbonate] |
| 81 | 78 | 0.009 | CCCCC/C=C\C/C=C\CCCCCCCCC(CCCCCCCC/C=C\C/C=C\CCCCC)OC(=O)OCCN(CCCCCCCCCCCC)CCN(C)C [Example 53] |
| 76.3 | 73 | 0.025 | CCCCCCCCC(CCCCCC)COC(=O)CCCCCC(CCCCCC)OC(=O)OCCN(CCN(CC)CC)C(C)C (stereo not drawn) [Example 116, 2-Hexyldecyl 3-ethyl-12-hexyl-6-isopropyl-10-oxo-9,11-dioxa-3,6-diazaoctadecan-18-oate] |
